Values quoted from earlier work in US7560230B2, “Method for determining susceptibility of tumor to treatment with anti-neoplastic agent” (Threshold Pharmaceuticals, Inc., priority 2003, dated 2009).

Columns and labels:
Conditions in all cases: sodium-dependent transport
SGLT1 = target: T1, SGLT1 (Homo sapiens, UniProt P13866)
T1 sequence (P13866 1-664): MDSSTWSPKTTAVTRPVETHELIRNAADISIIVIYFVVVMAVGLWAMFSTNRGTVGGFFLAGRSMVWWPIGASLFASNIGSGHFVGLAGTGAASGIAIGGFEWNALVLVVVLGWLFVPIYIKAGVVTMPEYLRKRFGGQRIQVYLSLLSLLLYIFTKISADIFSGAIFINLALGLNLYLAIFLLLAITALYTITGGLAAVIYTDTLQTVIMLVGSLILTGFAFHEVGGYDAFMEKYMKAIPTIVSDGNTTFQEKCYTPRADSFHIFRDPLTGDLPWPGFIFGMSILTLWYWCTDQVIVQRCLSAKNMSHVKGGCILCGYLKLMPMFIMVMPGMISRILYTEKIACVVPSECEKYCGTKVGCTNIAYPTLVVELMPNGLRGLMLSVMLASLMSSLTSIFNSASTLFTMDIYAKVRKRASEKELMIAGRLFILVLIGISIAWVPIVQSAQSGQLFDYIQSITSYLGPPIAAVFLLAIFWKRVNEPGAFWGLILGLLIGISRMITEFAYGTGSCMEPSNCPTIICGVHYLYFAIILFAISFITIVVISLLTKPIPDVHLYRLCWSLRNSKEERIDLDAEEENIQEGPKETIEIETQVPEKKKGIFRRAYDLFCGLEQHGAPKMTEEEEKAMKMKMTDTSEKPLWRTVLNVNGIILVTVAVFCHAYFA

SGLT2 = target: T2, SGLT2 (Homo sapiens, UniProt P31639)
T2 sequence (P31639 1-672): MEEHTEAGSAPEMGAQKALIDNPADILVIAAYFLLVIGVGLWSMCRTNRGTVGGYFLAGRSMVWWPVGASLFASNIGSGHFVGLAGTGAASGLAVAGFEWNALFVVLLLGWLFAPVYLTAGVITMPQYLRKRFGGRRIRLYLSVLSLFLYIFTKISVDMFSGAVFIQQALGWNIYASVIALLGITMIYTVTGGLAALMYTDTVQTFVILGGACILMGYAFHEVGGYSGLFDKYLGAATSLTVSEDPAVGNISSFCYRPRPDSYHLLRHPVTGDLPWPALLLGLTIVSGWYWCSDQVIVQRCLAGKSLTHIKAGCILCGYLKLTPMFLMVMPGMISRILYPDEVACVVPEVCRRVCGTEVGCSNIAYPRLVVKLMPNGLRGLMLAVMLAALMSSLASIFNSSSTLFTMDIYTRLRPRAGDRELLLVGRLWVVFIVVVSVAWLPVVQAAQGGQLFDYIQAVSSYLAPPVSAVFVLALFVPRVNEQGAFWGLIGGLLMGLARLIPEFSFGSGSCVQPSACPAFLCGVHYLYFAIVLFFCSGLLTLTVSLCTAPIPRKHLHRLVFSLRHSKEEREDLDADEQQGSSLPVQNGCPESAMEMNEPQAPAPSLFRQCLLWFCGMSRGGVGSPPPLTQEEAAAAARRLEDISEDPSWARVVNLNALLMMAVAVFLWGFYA

SGLT3 = tested on: SGLT3

CO[C@H]1O[C@H](CO)[C@@H](O)[C@H](O)[C@H]1O [a-MDG, a-methyl-D-glucoside]
apparent affinity (K0.5) (SGLT1): 0.4 mM
apparent affinity (K0.5) (SGLT2): 2 mM
apparent affinity (K0.5) (SGLT3): 2 mM
